According to patent US20240301472A1, “NUCLEIC ACID DETECTION METHOD, COMPOUND AND FLUORESCENT PROBE” (WAKAYAMA UNIVERSITY, priority 2020, published 2024):

Key:
living HeLa cells = test: Competition experiment with Hoechist 33258 using living HeLa cells; type: cell-based; conditions: Hoechist 33258 0-20 μM with compound 10 (1 μM) in 5% glucose
Experimental: In a tenth experiment, a competition experiment with Hoechist 33258 was performed using living HeLa cells. As the staining liquid, one obtained by causing Hoechist 33258 at an arbitrary concentration (0 μM, 5.0 μM, 10 μM, 20 μM) to coexist in a 5% glucose solution of the compound 10 (1 μM) was used, and the experiment was performed according to an operation similar to that in the sixth experiment. […] In FIG. 28, “600 nm” is a 600 nm fluorescence image. “700 nm” is a 700 nm fluorescence image. “Hoe” is a 460 nm fluorescence image at each concentration of Hoechist 33258. “Merged” is a synthesized image of “600 nm”, “700 nm”, and “Hoe”.

fixed HeLa cells = test: Competition experiment with Hoechist 33258 using fixed HeLa cells; type: cell-based; conditions: Hoechist 33258 0-6.0 μM with compound 10 (6 μM) in PBS
Experimental: In a ninth experiment, a competition experiment with Hoechist 33258 was performed using fixed HeLa cells. As the staining liquid, one obtained by causing Hoechist 33258 at an arbitrary concentration (0 μM, 1.5 μM, 3.0 μM, 6.0 μM) to coexist in a PBS solution of the compound 10 (6 μM) was used, and the experiment was performed according to an operation similar to that in the fourth experiment. […] In FIG. 27, “Ph” is a phase contrast observation image of cells at each concentration of Hoechist 33258. “Hoe” is a 460 nm fluorescence image at each concentration of Hoechist 33258. The fluorescence wavelength of Hoechist 33258 is 460 nm. “600 nm” is a 600 nm fluorescence image. “700 nm” is a 700 nm fluorescence image. “600 nm/700 nm” is a synthesized image of “600 nm” and “700 nm”. “Magnified 600 nm/700 nm” is a magnified image of “600 nm/700 nm”.

[1] = test system: viable cells (HeLA, A549, HEK293, MRC-5); test: Tracking of quadruplex nucleic acid formation in viable cells stained by compound 10 (response to PDS); type: cell-based; conditions: PDS 20 μM added to viable cells stained by compound 10 (1 μM)
Experimental: In the seventh experiment, pyridostatin (PDS: 20 μM) was added to viable cells stained by the same method as that in the sixth experiment and temporal change of a fluorescence image thereafter was observed. Pyridostatin (PDS) is a reagent for stabilizing quadruplex nucleic acids. FIG. 24 and FIG. 25 show the result of the seventh experiment.
In FIG. 25 as well, a case where PDS was added to the viable cells stained by the compound 10 was indicated with PDS (+), and a case where PDS was not added was indicated with PDS (−). In FIG. 25, the vertical axis represents intensity ratio between 600 nm fluorescence and 700 nm fluorescence, and the horizontal axis represents time after addition of PDS.

ds(AAATTT) being a dsDNA = conditions: conventional fluorescent ds probe, comparison value, read-out: dissociation constant; cited from earlier work

In the case of `CN1CCN(c2ccc3[nH]c(-c4ccc5[nH]c(-c6ccc(O)cc6)nc5c4)nc3c2)CC1` [Hoechist 33258], the “600 nm fluorescence intensity of compound 10 with increasing Hoechist 33258 concentration” value (living HeLa cells) is reported as “significantly decreased” and the “600 nm fluorescence intensity of compound 10 with increasing Hoechist 33258 concentration” value (fixed HeLa cells) is reported as “significantly decreased”.
In the case of `NCCOc1cc(C(=O)Nc2cc(OCCN)c3ccccc3n2)nc(C(=O)Nc2cc(OCCN)c3ccccc3n2)c1` [PDS, Pyridostatin], the “intensity ratio of 700 nm fluorescence to 600 nm fluorescence” value [1] is reported as “increased”.
For `C[n+]1c(/C=C/c2ccc(O)c(/C=C/c3sc4ccccc4[n+]3C)c2)sc2ccccc21` [QCy-DT, quinone cyanine-dithiazole], the Kd (ds(AAATTT) being a dsDNA) is listed as ~670 nM.
